Assay results taken from US20220364141A1, “Tryptase Activity Measurement Substrate” (National University Corporation Tokyo University of …, priority 2019, published 2022).
The star is where a group is joined. AMC = Cc1cc(=O)oc2cc(N*)ccc12; Tos = Cc1ccc(S(=O)(=O)*)cc1

How the values were obtained:
[1] = tested on: human lung tryptase; test: Screening of tryptase substrates: responsiveness of fluorescent MCA substrates to tryptase; assay type: biochemical; details: for Tryptase activity: relative value with the sensitivity of ^iBoc-Ala-Ala-Arg-MCA defined as 100, 100 μM substrate, 50 mM Tris-HCl pH 8.0, ex 365 nm / em 470 nm; for tryptase responsiveness compared with ^iBoc-Ala-Ala-Arg-MCA (in words): screening of Table 1
Protocol: In addition to reference to past documents as described above, ^iBoc-Y-X-Arg-MCA in which Gly, Ala, Abu, Val, Pro, Phe or hydrophilic Lys having distinctive bulkiness was introduced to positions P2 and P3 was synthesized as listed in Table 1 by a peptide library approach, and activity measurement was performed. Abu (2-aminobutyric acid) is a non-protein amino acid, but was added as an optimum peptide sequence search tool.
The activity measurement was performed by the following method.
(1) A stock of a substrate solution was provided as a 2.0 mM solution in DMSO. (2) The stock of the substrate solution was diluted 20-fold with 50 mM Tris-HCl (pH 8.0) to prepare a 100 μM solution. 100 μL thereof was added to a polypropylene microtube, further 2 μL of a commercially available tryptase solution (manufactured by Cappel Laboratories, Inc.) was added thereto, and the tube was lightly vortexed for mixing. Immediately thereafter, change in fluorescence intensity at 470 nm was measured at an excitation wavelength of 365 nm using an enzyme activity measurement apparatus (manufactured by Peptide Support Ltd., prototype).

[2] = tested on: Tryptase in Serum; test: Human serum enzyme activity with Suc-Ala-Ala-Arg-MCA-linked poly(L-lysine) substrate after addition of inhibitors; assay type: biochemical; details: for Enzyme activity: relative value with serum + PBS(-) defined as 100, human serum preincubated 10 min with 2 μL of 10 μM nafamostat or 10 U/mL hirudin, substrate Suc-Ala-Ala-Arg-MCA-linked poly(L-lysine)
Protocol: Suc-Ala-Ala-Arg-MCA-linked poly(L-lysine) prepared in Example 2 was used to test whether to be able to specifically measure tryptase activity in serum.
(1) 20.0 mg of Suc-Ala-Ala-Arg-MCA-linked poly(L-lysine) was dissolved in 50 mL of 50 mM Tris-HCl (pH 8.0). (2) 2 μL of commercially available human serum (manufactured by BioWest) was mixed with 2 μL of PBS(−) (pH 7.4) (control) or 2 μL of 10 μM nafamostat (tryptase inhibitor, manufactured by Tokyo Chemical Industry Co., Ltd.) or 2 μL of 10 U/mL hirudin (thrombin inhibitor, manufactured by Sigma-Aldrich Co., LLC). After a lapse of 10 minutes at room temperature, each mixed solution was added to 100 μL of the solution prepared in the step (1). Immediately thereafter, enzyme activity was measured.

| Compound | Tryptase activity [1] | further results |
| --- | --- | --- |
| N=C(N)c1ccc2cc(OC(=O)c3ccc(N=C(N)N)cc3)ccc2c1 [nafamostat] |  | inhibition of enzyme activity in serum detected with the macromolecular substrate (in words) ([2]; human serum, Suc-Ala-Ala-Arg-MCA-linked poly(L-lysine) substrate): completely inhibited; Enzyme activity [2]: 0 |
| Tos-Gly-Pro-Arg-{AMC} [reference compound] | 25 |  |
| ^iBoc-Abu-Abu-Arg-MCA | 69 |  |
| ^iBoc-Ala-Lys-Arg-MCA | 11 |  |
| ^iBoc-Ala-Phe-Arg-MCA | 1 |  |
| ^iBoc-Gly-Gly-Arg-MCA | 0 |  |
| ^iBoc-Lys-Ala-Arg-MCA | 167 | tryptase responsiveness compared with ^iBoc-Ala-Ala-Arg-MCA (in words) [1]: higher tryptase responsiveness than that of ^iBoc-Ala-Ala-Arg-MCA |
| ^iBoc-Phe-Ala-Arg-MCA | 62 |  |
| ^iBoc-Phe-Gly-Arg-MCA | 5 |  |
| ^iBoc-Phe-Ser-Arg-MCA | 11 |  |
| ^iBoc-Val-Ala-Arg-MCA | 53 |  |
| ^iBoc-Val-Pro-Arg-MCA | 20 |  |
| hirudin |  | Enzyme activity [2]: 83 |

Second part, led by results:

| Tryptase activity [1] | Compound | further results |
| --- | --- | --- |
| 0 | Cc1cc(=O)oc2cc(NC(=O)C(CCCNC(=N)N)NC(=O)OCC(C)C)ccc12 (stereo not drawn) [^iBoc-Arg-MCA] |  |
| 109 | ^iBoc-Abu-Ala-Arg-MCA | tryptase responsiveness compared with ^iBoc-Ala-Ala-Arg-MCA (in words) [1]: higher tryptase responsiveness than that of ^iBoc-Ala-Ala-Arg-MCA |
| 80 | ^iBoc-Ala-Abu-Arg-MCA |  |
| 100 | ^iBoc-Ala-Ala-Arg-MCA |  |
| 50 | ^iBoc-Ala-Val-Arg-MCA |  |
| 9 | ^iBoc-Gly-Pro-Arg-MCA |  |
| 75 | ^iBoc-Lys-Gly-Arg-MCA |  |
| 175 | ^iBoc-Lys-Pro-Arg-MCA | tryptase responsiveness compared with ^iBoc-Ala-Ala-Arg-MCA (in words) [1]: tryptase responsiveness slightly less than two times higher than that of ^iBoc-Ala-Ala-Arg-MCA |
